Read-outs that look alike come from different tables or passages of the source.
What was measured:
[1] = changes in hemoglobin over seven weeks (HemoCue Hb 201); type: in vivo; settings: mice followed for seven weeks, blood on days 0, 14, 28, 49; FIG. 3
Method: To investigate changes in Hb, mice treated with Epi, Ibu, ZnCar, Nap, Cox, Ibu+Epi, Ibu+ZnCar, and Ibu+Epi+ZnCar were used. A total of 5 mice per group were used. Mice were followed for seven weeks and blood was drawn on days 0, 14, 28, and 49. Hemoglobin was assessed in blood drawn from mice using a HemoCue Hb 201 analyzer. A drop of mouse blood was placed on a HemoCue microcuvette and assessed immediately. Measurements were recorded in millimole per liter.

[2] = test system: acetylcholine-induced mouse writing model; experiment: acetylcholine-induced mouse writing model (analgesic effects); type: in vivo, mice; settings: oral, predetermined ED50 dose ranges, 30 min before i.p. acetylcholine; writhes counted for 30 min; FIG. 1
Method: C57Bl/6 mice and Sprague-Dawley (SD) rats were used. Animals were group-housed under controlled temperature (25° C.) and photoperiods (12:12-hour light-dark cycle), and allowed unrestricted access to standard diet and tap water, unless otherwise noted. Animals were allowed to acclimate to these conditions for at least 7 days before inclusion in experiments. For each group of experiments, animals were matched by age, sex, and body weight. Care and experimentation of mice were performed in accordance with guidelines under protocols approved by the Institutional Animal Care and Use Committee.
To evaluate the effects of pain, the analgesic effects of Epi, ZnCar, Ibu, Nap, Cox, Ibu+Epi, Ibu+ZnCl, Ibu+ZnSt, Ibu+ZnCar, Ibu+Epi+ZnCl, and Ibu+Epi+ZnCar were tested in acetylcholine-induced (8.3 mg/kg, i.p.) mouse writing model. Seven mice were used in each group and were administered drugs orally at predetermined ED50 dose ranges. Thirty minutes after the oral administration of test drug, mice were provided with an intraperitoneal injection of 5.5 mg/kg acetylcholine bromide. […] The number of writhes was counted for 30 min and percentage nociception was calculated and correlatively compared between the groups.

[3] = test system: Carrageenin-induced hind paw edema; experiment: Carrageenin-induced hind paw edema; type: in vivo, SD rats; settings: oral, specific predetermined doses; plethysmometer, baseline and three hours after induction
Method: C57Bl/6 mice and Sprague-Dawley (SD) rats were used. Animals were group-housed under controlled temperature (25° C.) and photoperiods (12:12-hour light-dark cycle), and allowed unrestricted access to standard diet and tap water, unless otherwise noted. Animals were allowed to acclimate to these conditions for at least 7 days before inclusion in experiments. For each group of experiments, animals were matched by age, sex, and body weight. Care and experimentation of mice were performed in accordance with guidelines under protocols approved by the Institutional Animal Care and Use Committee. To evaluate the effects of inflammation, Epi, ZnCar, Ibu, Nap, Cox, Ibu+Epi, Ibu+ZnCl, Ibu+ZnSt, Ibu+ZnCar, Ibu+Epi+ZnCl, and Ibu+Epi+ZnCar were administered in specific predetermined doses. Six rats were used in each group. Carrageenin-induced hind paw edema was established in SD rats using Lambda-carrageenin solution injected so into the right hind paw within the first hour of oral administration of these drugs. The paw volume was estimated using a plethysmometer both at baseline and three hours following induction.

## Cc1ccc(-c2cc(C(F)(F)F)nn2-c2ccc(S(N)(=O)=O)cc2)cc1 [Cox, celecoxib]
[1]
  change in hemoglobin: progressive decrease in hemoglobin
mice, measured daily, tail-cuff, p<0.05
  change in systolic blood pressure (in words): significant elevations in systolic blood pressure

## O=C[C@@H](O)[C@@H](O)[C@H](O[C@@H]1O[C@H](CO)[C@H](O)[C@H](O)[C@H]1O)[C@H](O)CO [Epi, 4-O-β-galactopyranosyl-d-mannose]
[2]
  antinociceptive response (number of writhes, percentage nociception): did not exhibit therapeutic efficacy in the management of acute pain
[3]
  clinical response, paw volume 3 hours after carrageenin injection: did not exhibit therapeutic efficacy in the management of acute inflammation

## CC(C)Cc1ccc(C(C)C(=O)O)cc1 (centres unmarked) [Ibu, ibuprofen]
[1]
  change in hemoglobin: progressive highly significant decrease in hemoglobin
mouse, in vivo
  change in systolic blood pressure (in words): significant elevations in systolic blood pressure
  systolic blood pressure (mean): 129.3 mmHg

## COc1ccc2cc([C@H](C)C(=O)O)ccc2c1 [Nap, naproxen]
[1]
  change in hemoglobin: progressive decrease in hemoglobin
mouse, in vivo
  change in systolic blood pressure (in words): significant elevations in systolic blood pressure

## zinc carnosine [ZnCar]
[2]
  antinociceptive response (number of writhes, percentage nociception): did not exhibit therapeutic efficacy in the management of acute pain
[3]
  clinical response, paw volume 3 hours after carrageenin injection: did not exhibit therapeutic efficacy in the management of acute inflammation

From US9084769B2, “Compositions comprising non steroidal anti-inflammatory drugs and methods for use thereof” (priority 2011, dated 2015)
